Publication PMC9872666, “Pharmacological Profiling of a Brugia malayi Muscarinic Acetylcholine Receptor as a Putative Antiparasitic Target” (Antimicrobial Agents and Chemotherapy, 2023)

Molecular target: T1, Bma-GAR-3 (Brugia malayi, UniProt A0A4E9FL79)
T1 construct: full-length synthesized ORF; transgenic C. elegans gar-3(gk305) knockout, expressed in ASH neuron (sra-6p), body wall muscle (myo-3p) or pharynx (myo-2p)
Test: ring aversion assay, transgenic C. elegans expressing receptor in ASH neuron
Details: agonist; 100 mM in plate ring; whole transgenic worms, gar-3(gk305) knockout background; N2 and knockout as controls; also pharyngeal pumping and dye-uptake assays

T1 sequence (A0A4E9FL79 entry or part of it): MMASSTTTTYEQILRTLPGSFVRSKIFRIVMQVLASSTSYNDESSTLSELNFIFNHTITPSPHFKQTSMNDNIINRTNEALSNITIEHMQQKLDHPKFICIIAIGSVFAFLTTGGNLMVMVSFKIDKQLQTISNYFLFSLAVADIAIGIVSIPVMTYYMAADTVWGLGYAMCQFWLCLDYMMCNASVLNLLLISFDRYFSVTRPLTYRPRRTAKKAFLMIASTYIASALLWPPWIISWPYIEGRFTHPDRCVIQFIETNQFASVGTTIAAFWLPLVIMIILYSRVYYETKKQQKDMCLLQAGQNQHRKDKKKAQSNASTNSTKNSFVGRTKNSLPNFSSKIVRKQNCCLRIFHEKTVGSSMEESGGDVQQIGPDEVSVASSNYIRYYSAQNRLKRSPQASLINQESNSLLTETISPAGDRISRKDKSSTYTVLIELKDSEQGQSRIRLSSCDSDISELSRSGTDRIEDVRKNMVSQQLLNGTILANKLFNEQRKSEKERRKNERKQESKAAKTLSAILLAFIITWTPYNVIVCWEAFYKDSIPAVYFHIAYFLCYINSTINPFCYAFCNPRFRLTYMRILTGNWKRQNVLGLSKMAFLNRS

## C[N+](C)(C)CC#CCN1CCCC1=O [OXO, oxotremorine M]
  ring aversion assay, transgenic C. elegans expressing receptor in ASH neuron: this receptor is activated by acetylcholine and oxotremorine M
